# Measured values taken from patent US8703704B2, “Method for growing, restoring and regenerating hair” (priority 2009, dated 2014).
# Entries after “also recorded” stand apart in the source; their conditions may differ.
# Columns and labels:
# [1] = system: wounds caused by the surgical operation (laser removal of lentigo); experiment: ANP applied to facial wounds caused by laser surgery (left half treated, right half as comparison); assay type: in vivo, human
# Protocol: In a patient who received operation for removing lentigo on the entire facial surface by the laser method, ANP was administered at a dose of 0.1 to 5 μg (with an isotonic aqueous solution at a dose of 0.01 ml to 0.5 ml) twice a day to wounds caused by the surgical operation or areas around the wounds on the left half of the patient's face, and the result was compared to wounds on the right side half of the patient's face. […] Furthermore, tension of skin was observed more clearly in the left side facial area as a whole as compared to that in the right side, and smoothness of the facial skin in the left side was improved.
# [2] = system: Human normal cornified cell stock HaCat; experiment: Wound (scratch) test on confluent HaCat; assay type: cell-based
# Protocol: Human normal cornified cell stock HaCat was seeded in a falcon flat bottom 6-well dish at the seeding rate of 2×10^5 cells/dish. In 3 days, the cells in the confluent state were injured with a pipetteman chip, and the cells were washed with PBS twice, and then ANP was added so that the content was 1 μM (in OptiMEM serum free). In 24 hours, behaviors of the cells were observed (FIG. 4).
# [3] = system: cardiac muscle of a patient suffering from the dilated cardiomyopathy; experiment: Intermittent intravenous ANP in a patient with dilated cardiomyopathy; assay type: in vivo, human
# Protocol: A small quantity of ANP was administered intermittently, namely once for a week by 1 mg over 4 hours by means of intravenous injection to a patient diagnosed as suffering from the dilated cardiomyopathy who was […]. The contraction percentage was 19% before start of administration of ANP, but was improved up to 40% in 6 months, and also the systemic arterial capacity, which was NYHA IV before start of the treatment, was improved up to NYHA II. […] By continuing administration of ANP once a week for two years, the […] was improved up to NYHA I, and although the patient's prognosis was regarded as 6 months by the conventional therapy, it is now determined that the patient will be able to enjoy the ordinary domestic life for 10 years or more. The patient's cardiac muscle thickness and contractile activity are at present quite good.
# [4] = system: head hairs of patients of thin hairs; experiment: ANP applied on head skin of patients of thin hairs; assay type: in vivo, human
# Protocol: ANP was applied by 0.5 to 5 μg to two patients of thin hairs […], after the hairs were cleaned, twice a day (together with 0.5 ml of an isotonic aqueous solution) directly on the patients' head skin. States of pores and hairs and total state of head hairs after administration of ANP were observed and compared to those before start of administration of ANP. Observation of the states was also performed in 40 days and in 60 days after start of ANP administration for assessment. […] In 2 to 3 weeks after start of administration of ANP, it was observed that elasticity and solidity increased in total hairs on the patients' heads. In one month after start of ANP administration, the sites on each patient's head where the head skin had been visible became less visible. The retarded front line of head hairs again moved frontward, and new hairs grew up to the length of 5 to 7 mm. Furthermore, a second short hair was discovered at the side of a long grown hair. […] Black spiral hairs were observed under the pore portions. Just after the spiral hairs came out from under the head skin, the hairs kept the spiral state, but when the hairs become straight, the length was in the range from 3 to 4 mm.
# KRT15 = experiment: RT-PCR expression of KRT15 in HaCat; assay type: cell-based, human; conditions: 1 μM; 30 minutes after start of treatment; transitional
# Protocol: (§1) Human normal cornified cell stock HaCat was seeded in a 3.5 cm falcon flat bottom […] dish at the seeding rate of 2×10^4 cells/dish. In 3 days, ANP was added by 1 μM, and RNA was recovered using RNeasy plus (QUIAGEN) from the cells at the time points of 0 minute, 30 minutes, and 4 hours after start of the treatment. cDNA was synthesized using Superscript III (Invitrogen) from 0.2 μg of RNA, and the synthesized cDNA was used as a template for PCR. Using GAPDH as an internal control, the sample was subjected to PCR and then agarose electrophoresis, then stained by Cyber Safe (Invitrogen), the electrophoresis image was photographed on a UV transilluminator with a digital camera (Olympus C5060WZ), and thickness of each band was measured with the Image J (for densitometer analysis). […] Expression of BMP-2 increased by 1.5 times as compared to samples not treated in 4 hours after treatment with ANP.
# [5] = system: Human normal cornified cell stock HaCat; experiment: Colony formation of HaCat in drops; assay type: cell-based; conditions: 1 μM ANP
# Protocol: In the case of 10 μl drop, formation of any colony was not observed.
# Cyclin D1 = experiment: RT-PCR expression of Cyclin D1 in HaCat; assay type: cell-based, human; conditions: 1 μM
# Protocol: as §1
# [6] = system: skin of hands (cracked and rough); experiment: ANP applied on hands with cracked and rough skin; assay type: in vivo, human; conditions: 0.5 to 5 μg twice a day on backs and palms of both hands
# Protocol: The ANP according to the present invention was applied on both the backs and palms of both hands of a ceramic artist who touched water and mud every day at a dose of 0.5 to 5 μg twice a day.
smiles,measurement,setting,value
"CC[C@H](C)[C@@H]1NC(=O)[C@H](CCCNC(=N)N)NC(=O)[C@H](CC(=O)O)NC(=O)[C@H](CCSC)NC(=O)[C@H](CCCNC(=N)N)NC(=O)CNC(=O)CNC(=O)[C@H](Cc2ccccc2)NC(=O)[C@@H](NC(=O)[C@H](CO)NC(=O)[C@H](CO)NC(=O)[C@H](CCCNC(=N)N)NC(=O)[C@H](CCCNC(=N)N)NC(=O)[C@H](CC(C)C)NC(=O)[C@@H](N)CO)CSSC[C@@H](C(=O)N[C@@H](CC(N)=O)C(=O)N[C@@H](CO)C(=O)N[C@@H](Cc2ccccc2)C(=O)N[C@@H](CCCNC(=N)N)C(=O)N[C@@H](Cc2ccc(O)cc2)C(=O)O)NC(=O)CNC(=O)[C@H](CC(C)C)NC(=O)CNC(=O)[C@H](CO)NC(=O)[C@H](CCC(N)=O)NC(=O)[C@H](C)NC(=O)CNC1=O [ANP, atrial natriuretic peptide]",closure of wounds,"[1]; 0.1 to 5 μg twice a day, one week after start, versus untreated right side",most of the wounds were closed
same,restoration of wounds,[1]; ANP area compared to control area / no ANP,advances far quickly; also recorded: more quickly restored
same,smoothness of the facial skin,[1]; left (treated) side,improved
same,surgical traces,[1]; sites where ANP was administered,less remarkable
same,reformation of subcutaneous tissue,[1]; treated left half versus untreated right half of face,clearly earlier
same,cell motility,[2]; 1 μM,rose
same,behaviour of cells at wound edges,"[2]; 1 μM in OptiMEM serum free, 24 hours",many rounding-like sites are observed; also recorded: rounding-like state was observed at many sites
same,contraction percentage,"[3]; 1 mg i.v. over 4 hours once a week, in 6 months, 19% before start",40%
same,NYHA class after continued administration,[3]; ANP once a week for two years,NYHA I
same,cardiac muscle thickness (ultrasonic diagnosis),[3]; during ANP treatment,increased
same,NYHA functional class,"[3]; in 6 months, NYHA IV before start of the treatment",NYHA II
same,time the patient will be able to enjoy ordinary domestic life (prognosis),[3]; prognosis was 6 months by the conventional therapy,≥ 10 years
same,growth of downy hairs on the frontal region,"[4]; 0.5 to 5 μg twice a day, one week after start",growth of hairs like downy hairs was observed
same,elasticity and solidity of total hairs,[4]; 2 to 3 weeks after start,increased
same,thickness of head hairs,[4]; 40 days after start,thickness increased
same,visibility of head skin,[4]; 60 days after start,hardly visible
same,increase of expression rate of KRT15,KRT15,about 20%
same,capability of forming colonies,[5],form colonies; also recorded: colonies formed
same,expression rate of Cyclin D1 relative to the original level,Cyclin D1,⅓ and around ⅓
same,cracked and rough skin symptoms,[6],remarkably improved
